Experimental data as given in patent EP2999467B1, “USE OF A COMBINATION OF TWO COMPOUNDS FOR THE TREATMENT AND/OR PREVENTION OF BONE DISORDERS” (Institut National de la Recherche Agronomique (INRA), priority 2013, dated 2014).

Key:
[1] = system: préostéoblastes primaires; assay: Mineralisation test (alizarin red staining of mineralised nodules); type: cell-based, rats Wistar; details: Rattus norvegicus, 408 h, 17 days of culture, read-out: minéralisation (nodules minéralisés) par rapport à la condition « AA+βGP seuls »
Source text: Les préostéoblastes primaires ont été isolés à partir de la calotte crânienne de rats Wistar nouveaux-nés par digestion enzymatique comme précédemment décrit [Declercq, H., Van den Vreken, N., De Maeyer, E., Verbeeck, R., Schacht, E., De Ridder, L., and Cornelissen, M. (2004). Isolation, proliferation and differentiation of osteoblastic cells to study cell/biomaterial interactions: comparison of different isolation techniques and source. Biomaterials 25, 757-68.]. Les précurseurs d'ostéoclastes RAW264.7 ont été obtenus auprès de l'ATCC (Manassas, VA, USA). Les préostéoblastes et les RAW264.7 ont été cultivés dans du milieu α-MEM (Invitrogen, Carlsbad, CA, USA) supplémenté avec 10% de SVF décomplémenté et de 100 unités/ml de pénicilline-streptomycine.
Les préostéoblastes primaires ont été ensemencés à 1,5 * 10^5 cellules par puit dans des plaques 12 puits traitées au collagène. Trente-six heures plus tard, les cellules ont été prétraitées avec du DMSO comme témoin ou de la fisétine (1 à 5 µM) pendant 12 heures, puis induites à se différentier avec 25 µg/ml d'acide ascorbique et 5 mM de bêta-glycérophosphate en présence de DMSO ou de fisétine (1 à 5 µM). Après 17 jours de culture avec un changement des milieux tous les 2 jours, les cellules ont été fixées avec de l'éthanol à 70% et les dépôts de calcium ont été colorés avec une solution à 40 mM d'alizarine rouge (pH 4,2). La zone et l'intensité des nodules ont été quantifiées en utilisant le logiciel ImageJ (http://rsb.info.nih.gov/ij/).

[2] = system: perte osseuse induite par ovariectomie; assay: Ovariectomy-induced bone loss: trabecular bone mineral density of femur (CT); type: in vivo, souris C57BL/6J; details: OVX mice, Fisétine 25mg/kg daily by gavage; OVX without fisetin -15%
Experimental: Tout au long de l'étude, les animaux ont été logés dans un environnement contrôlé (12:12 h cycle lumière-obscurité, 20-22 ° C, 50-60% d'humidité relative, 1 souris par cage en plastique avec un accès libre à l'eau. Les souris C57BL/6J ont été livrées 2 semaines avant l'étude pour l'acclimatation à notre environnement sous régime standard semi-purifié. Pour toutes les expériences, les souris de 8 semaines (n=12/groupe) ont été gavées avec le véhicule (1% d'éthanol, 0,2% hydroxypropylcellulose dans de l'eau distillée) ou avec la fisétine (5 à 50 mg/kg dans le véhicule) pendant une semaine. Ensuite, pour l'expérience OVX, les souris ont été pseudo-opérées ou ovariectomisées bilatéralement et ont reçu quotidiennement par gavage le véhicule ou la fisétine pendant 4 semaines. A la fin de l'expérimentation, le sérum, les cornes utérines, les tibias et les fémurs ont été recueillis pour analyse. Pour l'expérience de perte osseuse induite par LPS, le véhicule (PBS) ou le LPS (sérotype 026: B6, 25mg/kg) ont été injectés par voie sous-cutanée au niveau de la calotte crânienne, une fois par semaine pendant 3 semaines sous anesthésie. Durant ces 3 semaines, les souris ont reçu soit le véhicule (1% d'éthanol, 0,2% hydroxypropylcellulose dans de l'eau distillée) soit la fisétine quotidiennement par gavage. […]

[3] = system: perte osseuse induite par ovariectomie; assay: Ovariectomy-induced bone loss: bone micro-architecture (micro-CT); type: in vivo, souris C57BL/6J
Experimental: Tout au long de l'étude, les animaux ont été logés dans un environnement contrôlé (12:12 h cycle lumière-obscurité, 20-22 ° C, 50-60% d'humidité relative, 1 souris par cage en plastique avec un accès libre à l'eau. Les souris C57BL/6J ont été livrées 2 semaines avant l'étude pour l'acclimatation à notre environnement sous régime standard semi-purifié. Pour toutes les expériences, les souris de 8 semaines (n=12/groupe) ont été gavées avec le véhicule (1% d'éthanol, 0,2% hydroxypropylcellulose dans de l'eau distillée) ou avec la fisétine (5 à 50 mg/kg dans le véhicule) pendant une semaine. Ensuite, pour l'expérience OVX, les souris ont été pseudo-opérées ou ovariectomisées bilatéralement et ont reçu quotidiennement par gavage le véhicule ou la fisétine pendant 4 semaines. A la fin de l'expérimentation, le sérum, les cornes utérines, les tibias et les fémurs ont été recueillis pour analyse. Pour l'expérience de perte osseuse induite par LPS, le véhicule (PBS) ou le LPS (sérotype 026: B6, 25mg/kg) ont été injectés par voie sous-cutanée au niveau de la calotte crânienne, une fois par semaine pendant 3 semaines sous anesthésie. Durant ces 3 semaines, les souris ont reçu soit le véhicule (1% d'éthanol, 0,2% hydroxypropylcellulose dans de l'eau distillée) soit la fisétine quotidiennement par gavage. A la fin de l'expérimentation, le sérum, les tibias et les fémurs ont été recueillis pour analyse. Des expériences similaires ont été conduites et arrêtés 24 heures après la première injection de LPS et les fémurs ont été prélevés pour extraction des ARNs et l'analyse en qRT-PCR.
Pour effectuer une mesure, l'échantillon a été monté sur un plateau tournant pouvant être déplacé automatiquement dans le sens axial (pas angulaire: 0,675°/reconstruction plage angulaire: 186.30°). Un filtre en aluminium (0,5 mm d'épaisseur) a été placé entre la source de rayons X et l'échantillon. La micro-architecture (spongieuse secondaire) a été analysée en utilisant le rayonnement X micro-CT SkyScan 1072 (BRUKER-microCT, Kontich, Belgique). Des photos de 1024 * 1024 pixels ont été obtenues en utilisant les paramètres 37kV et 215µA. Selon les paramètres de la caméra, les pixels mesurent 5.664µm menant à un voxel de 1.817 * 10-7mm^3. Le calcul des paramètres histomorphométriques a été réalisé en utilisant les logiciels ctan ® et Nrecon ® (version 1.11. Et 1.6.1.7 respectivement).

**Q.** Which results are given for O=c1c(O)c(-c2ccc(O)c(O)c2)oc2cc(O)ccc12 [Fisétine, 3,3',4',7-tétrahydroxyflavone]?
**A.** activation at 1 µM ([1]; AA+βGP+Fisétine 1µM): 62%; activation at 5 µM ([1]; AA+βGP+Fisétine 5µM): 169%; activation at 2.5 µM ([1]; AA+βGP+Fisétine 2,5µM): 105%; densité minérale osseuse (DMO trabéculaire) par rapport à la condition témoin « SH » [2]: -4%; augmentation de l'épaisseur des trabécules par rapport aux animaux OVX ([3]; OVX + Fisétine 25 mg/kg): 3,55%; augmentation du nombre de trabécules par rapport aux animaux OVX ([3]; OVX + Fisétine 25 mg/kg): 16,31%; augmentation du volume osseux/volume total par rapport aux animaux OVX ([3]; OVX + Fisétine 25 mg/kg): 20,37%; Nombre de trabécules ([3]; OVX + Fisétine 25mg/kg, OVX 1.90 ± 0.22): 2.21 ± 0.12 mm^-1; Volume osseux/Volume total ([3]; OVX + Fisétine 25mg/kg, OVX 13.40 ± 1.74): 16.13 ± 0.96%; Epaisseur des trabécules ([3]; OVX + Fisétine 25mg/kg, OVX 70.35 ± 1.295): 72.85 ± 1.563 µm; Espace inter-trabéculaire ([3]; OVX + Fisétine 25mg/kg, OVX 285.68 ± 54,69): 265.50 ± 29.41 µm
